Measured values taken from article PMC11963566, “A phase I, single-center, randomized, open-label, three-period crossover study to evaluate the drug–drug interaction between ZSP1273 and oseltamivir in healthy Chinese subjects” (Antimicrobial Agents and Chemotherapy, 2025).
Read-outs that look alike come from different tables or passages of the source.

Key:
[1] = Safety assessment: adverse events (CTCAE 5.0, MedDRA 23.1) in healthy subjects; type: in vivo, human
Method: Safety assessment was conducted from the first administration of the investigational drug until the end of the trial. Safety indicators included adverse events (AEs), serious adverse events (SAEs), clinical laboratory tests (hematology, biochemistry, and urinalysis), vital signs, physical examination, and 12-lead electrocardiogram.
The severity of AE was assessed according to the CTCAE 5.0 standard and includes grades 1 to 5. Based on the criteria for determining causality between drugs and adverse events, the relationship was classified into five levels: definitely related, probably related, possibly related, probably not related, definitely not related. Among them, definitely related, probably related, and possibly related are defined as drug-related AEs.
Adverse events were coded using Med DRA 23.1 Chinese ([30]) and analyzed based on system organ class (SOC) and preferred term (PT). Adverse events during the treatment period, drug-related adverse events, and serious adverse events were described by frequency, number of cases (n), and incidence rate (%) according to SOC, PT, and the highest severity classification.

clinical = conditions: human; for AUC(0-inf): AUC0-∞,ss
[2] = subjects with AUC_%Extrap >20.0% or Rsq <0.800 excluded
[3] = SOC Gastrointestinal disorders, probably related
[4] = SOC General disorders and administration site conditions, possibly related
[5] = SOC Infections and infestations, probably not related
[6] = SOC Investigations, possibly related
[7] = SOC Investigations, probably not related
[8] = SOC Skin and subcutaneous tissue disorders, possibly related
[9] = healthy subjects, 5 days dosing

CCOC(=O)C1=C[C@@H](OC(CC)CC)[C@H](NC(C)=O)[C@@H](N)C1 [Oseltamivir, oseltamivir]
AUC0-t,ss, geometric mean ratio co-administration/monotherapy (human, in vivo): 92.7%
AUC0-τ,ss, geometric mean ratio co-administration/monotherapy (human, in vivo): 92.2%
AUC0-∞,ss, geometric mean ratio co-administration/monotherapy (human, in vivo): 92.6%
AUC0-∞,ss, intra-individual coefficient of variation (human, in vivo): 11.8%
Cmax,ss, geometric mean ratio co-administration/monotherapy (human, in vivo): 60.1%
decrease in Cmax,ss after co-administration (human, in vivo): 39.9%
CLss/F (human, in vivo, po): 459.8 ± 106.3 (23.1%) L/h
AUC0-∞,ss, geometric mean ratio co-administration/monotherapy [2]: 93.5%
AUC0-∞,ss, intra-individual coefficient of variation [2]: 10.7%
Gastrointestinal disorders (SOC): Cases (%) ([1]; AE by system organ class): 0 Cases (%)
Gastrointestinal disorders (SOC): Occurrences ([1]; AE by system organ class): 0
General disorders and administration site conditions (SOC): Cases (%) ([1]; AE by system organ class): 0 Cases (%)
General disorders and administration site conditions (SOC): Occurrences ([1]; AE by system organ class): 0
Infections and infestations (SOC): Cases (%) ([1]; AE by system organ class): 1 (2.9) Cases (%)
Infections and infestations (SOC): Occurrences ([1]; AE by system organ class): 1
Investigations (SOC): Cases (%) ([1]; AE by system organ class): 6 (17.6) Cases (%)
Investigations (SOC): Occurrences ([1]; AE by system organ class): 12
Skin and subcutaneous tissue disorders (SOC): Cases (%) ([1]; AE by system organ class): 1 (2.9) Cases (%)
Skin and subcutaneous tissue disorders (SOC): Occurrences ([1]; AE by system organ class): 1
Diarrhea: Cases (%) [1, 3]: 0 Cases (%)
Diarrhea: Occurrences [1, 3]: 0
Fever: Cases (%) [1, 4]: 0 Cases (%)
Fever: Occurrences [1, 4]: 0
Upper respiratory tract infection (URTI): Cases (%) [1, 5]: 1 (2.9) Cases (%)
Upper respiratory tract infection (URTI): Occurrences [1, 5]: 1
Decreased blood triglycerides: Cases (%) [1, 6]: 1 (2.9) Cases (%)
Decreased blood triglycerides: Occurrences [1, 6]: 1
Decreased high-density lipoprotein (HDL): Cases (%) [1, 6]: 2 (5.9) Cases (%)
Decreased high-density lipoprotein (HDL): Occurrences [1, 6]: 2
Decreased neutrophil count: Cases (%) [1, 6]: 0 Cases (%)
Decreased neutrophil count: Occurrences [1, 6]: 0
Increased blood cholesterol: Cases (%) [1, 6]: 0 Cases (%)
Increased blood cholesterol: Occurrences [1, 6]: 0
Increased blood creatinine: Cases (%) [1, 6]: 0 Cases (%)
Increased blood creatinine: Occurrences [1, 6]: 0
Increased blood triglycerides: Cases (%) [1, 6]: 1 (2.9) Cases (%)
Increased blood triglycerides: Occurrences [1, 6]: 1
Increased blood uric acid: Cases (%) [1, 6]: 1 (2.9) Cases (%)
Increased blood uric acid: Occurrences [1, 6]: 1
Increased gamma-glutamyl transferase (GGT): Cases (%) [1, 6]: 0 Cases (%)
Increased gamma-glutamyl transferase (GGT): Occurrences [1, 6]: 0
Increased lipase: Cases (%) [1, 6]: 0 Cases (%)
Increased lipase: Occurrences [1, 6]: 0
Increased low-density lipoprotein (LDL): Cases (%) [1, 6]: 0 Cases (%)
Increased low-density lipoprotein (LDL): Occurrences [1, 6]: 0
Crystals present in urine: Cases (%) [1, 7]: 1 (2.9) Cases (%)
Crystals present in urine: Occurrences [1, 7]: 1
Decreased hemoglobin: Cases (%) [1, 7]: 2 (5.9) Cases (%)
Decreased hemoglobin: Occurrences [1, 7]: 2
Increased urine specific gravity: Cases (%) [1, 7]: 1 (2.9) Cases (%)
Increased urine specific gravity: Occurrences [1, 7]: 1
Nitrites present in urine: Cases (%) [1, 7]: 1 (2.9) Cases (%)
Nitrites present in urine: Occurrences [1, 7]: 1
Positive urine occult blood: Cases (%) [1, 7]: 1 (2.9) Cases (%)
Positive urine occult blood: Occurrences [1, 7]: 1
Protein detected in urine: Cases (%) [1, 7]: 1 (2.9) Cases (%)
Protein detected in urine: Occurrences [1, 7]: 1
Acneiform dermatitis: Cases (%) [1, 8]: 1 (2.9) Cases (%)
Acneiform dermatitis: Occurrences [1, 8]: 1
Maculopapular rash: Cases (%) [1, 8]: 0 Cases (%)
Maculopapular rash: Occurrences [1, 8]: 0
increased blood triglycerides, incidence ([1]; drug-related adverse event): 2.9%
At least one treatment-emergent adverse event (TEAE): Cases (%) [1, 9]: 7 (20.6) Cases (%)
At least one treatment-emergent adverse event (TEAE): Occurrences [1, 9]: 14
At least one treatment-emergent adverse event related to drugs: Cases (%) [1, 9]: 5 (14.7) Cases (%)
At least one treatment-emergent adverse event related to drugs: Occurrences [1, 9]: 6
AUC(0-t) (clinical; in vivo, AUC0-t,ss, geometric mean): 170 ng·h/mL
AUC (clinical; in vivo, AUC0-τ,ss, geometric mean): 167 ng·h/mL
AUC(0-inf) (clinical; in vivo, geometric mean): 175 ng·h/mL
AUC(0-inf) (clinical; in vivo, geometric mean, monotherapy, subjects with AUC_%Extrap >20.0% or Rsq <0.800 excluded): 175 ng·h/mL
Cmax (clinical; in vivo, Cmax,ss, geometric mean): 91.2 ng/mL
Tmax (clinical; in vivo, po, Tmax,ss): 0.5 h
Vd/F (clinical; in vivo, po, Vz/F): 3070 L
half-life (clinical; in vivo, po, t1/2,ss): 4.5 ± 4.8 h
AUC(0-inf) (clinical; plasma, oral, geometric mean, co-administration ZSP1273 + oseltamivir, plasma, day 5, all subjects): 163 ng·h/mL
k el (clinical; plasma, po, 75 mg): 7.78e-05 s⁻¹
